Counter-ions that a name gives are not always drawn. Like-named read-outs stand apart in the source and are kept apart here.
Tests used:
Type in all cases: cell-based
[1] = system: human breast cancer cell line T-47D; test: Caspase cascade activation (EC50), T-47D; conditions: T47D cells, caspase cascade activation, read-out: caspase potency (EC50) T47D
Method in brief: (§1)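 48 h compound exposure (0.016–10 μM final) at 37 °C, 5% CO2; then DEVD-R110 substrate in lysolecithin/DTT/PIPES pH 7.2 buffer, 3 h RT. Fluorescence ex485/em530; net RFU = T=3 h minus control T=0; ratio to control; sigmoidal fit → EC50 (nM).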

[2] = system: human lymphoma cell line Raji; test: Caspase cascade activation (EC50), Raji; conditions: RAJI cells, read-out: caspase potency (EC50) RAJI
Method in brief: as §1

[3] = system: human hepatocellular carcinoma cell line SNU398; test: Caspase cascade activation (EC50), SNU398; conditions: SNU398 cells, caspase cascade activation, read-out: caspase potency (EC50) SNU398
Method in brief: as §1

[4] = system: human colon carcinoma cell line HCT116; test: Caspase cascade activation (EC50), HCT116; conditions: HCT116 cells, caspase cascade activation, read-out: caspase potency (EC50) HCT116
Method in brief: as §1

[5] = system: human Burkitt's lymphoma cell line Namalwa; test: Inhibition of cell proliferation (GI50), Namalwa; conditions: Namalwa cells, 48 h, CellTiter-Glo
Procedure: (§2) Human breast cancer cell lines T-47D, human hepatocellular carcinoma cell line SNU398, human colon carcinoma cell line HCT116, human lung cancer cell line H1299, human leukemia cell line K562, human lymphoma cell line Raji, human B cell lymphoblastoid cell line Ramos, and human Burkitt's lymphoma cell line Namalwa were grown and harvested as in Example 100. An aliquot of […] of cells (4.4×10^4 cells/mL) was added to a well of a 96-well microtiter plate containing 5 μL of a 10% DMSO in RPMI-1640 media solution containing 10 nM to 100 μM of 3-(2-chlorophenyl)-6-(3,4-methylenedioxyphenyl)-7H-[1,2,4]triazolo[3,4-b][1,3,4]thiadiazine (1 nM to 10 μM final). An aliquot of 45 μL of cells was added to a well of a 96-well microtiter plate containing 5 μL of a 10% DMSO in RPMI-1640 media solution without compound as the control sample for maximal cell proliferation (LMax). The samples were mixed by agitation and then incubated at 37° C. for 48 h in a 5% CO2-95% humidity incubator. After incubation, the samples were removed from the incubator and 25 μL of CellTiter-Glo™ reagent (Promega) was added. The samples were mixed by agitation and incubated at room temperature for 10-15 min. Plates were then read using a luminescent plate reader (Model SPECTRAfluor Plus, Tecan) to give Ltest values.
(§3) The samples were mixed by agitation and then incubated at 37° C. for 0.5 h in a 5% CO2-95% humidity incubator. After incubation, the samples were removed from the incubator and 25 μL of CellTiter-Glo™ reagent (Promega) was added. The samples were mixed by agitation and incubated at […] 10-15 min at room temperature in a 5% CO2-95% humidity incubator. Fluorescence was read as above, (LStart) defining luminescence for initial cell number used as baseline in GI50 determinations.
(§4) Calculation: GI50 (dose for 50% inhibition of cell proliferation) is the concentration where [(Ltest−LStart)/(LMax−LStart)]=0.5.

[6] = system: human colon carcinoma cell line HCT116; test: Inhibition of cell proliferation (GI50), HCT116; conditions: HCT 116 cells, 48 h, CellTiter-Glo
Procedure: as §2, §3, §4

[7] = system: human B cell lymphoblastoid cell line Ramos; test: Caspase cascade activation (EC50), Ramos; conditions: RAMOS cells, read-out: caspase potency (EC50) RAMOS
Method in brief: as §1

[8] = system: human lymphoma cell line Raji; test: Inhibition of cell proliferation (GI50), Raji; conditions: Raji cells, 48 h, CellTiter-Glo
Procedure: as §2, §3, §4

[9] = system: human Burkitt's lymphoma cell line Namalwa; test: Caspase cascade activation (EC50), Namalwa; conditions: Namalwa cells, caspase cascade activation, read-out: caspase potency (EC50) Namalwa
Method in brief: as §1

[10] = system: human B cell lymphoblastoid cell line Ramos; test: Inhibition of cell proliferation (GI50), Ramos; conditions: Ramos cells, 48 h, CellTiter-Glo
Procedure: as §2, §3, §4

[11] = system: human leukemia cell line K562; test: Inhibition of cell proliferation (GI50), K562; conditions: K562 cells, 48 h, CellTiter-Glo
Procedure: as §2, §3, §4

[12] = Homo sapiens, Burkitts lymphoma cell

EC50 ([1]; Homo sapiens) [nM] | EC50 ([2]; Homo sapiens) [nM] | EC50 ([3]; Homo sapiens, SNU-398) [nM] | EC50 ([4]; Homo sapiens, HCT-116) [nM] | GI50 [5, 12] [nM] | GI50 ([6]; Homo sapiens) [nM] | EC50 ([7]; Homo sapiens) [nM] | GI50 ([8]; Homo sapiens) [nM] | EC50 [9, 12] [nM] | GI50 ([10]; Homo sapiens) [nM] | GI50 ([11]; Homo sapiens) [nM] | SMILES | further results
34 | 12 | 5 | 8 | 6 | 10 | 8 | 4 | 7 | 1 | 4 | COc1ccc(-c2nnc3n2N=C(c2ccc(C)cc2)CS3)c(OC)c1 [Example 15, 3-(2,4-Dimethoxyphenyl)-6-(4-methylphenyl)-7H-[1,2,4]triazolo[3,4-b][1,3,4]thiadiazine hydrobromide] | –
32 | 27 | 18 | 26 | 7 | 13 | 27 | 2 | 15 | 3 | 2 | CCN(CC)c1ccc(C2=Nn3c(nnc3-c3ccccc3OC)SC2)cc1 [Example 23, 6-(4-Diethylaminophenyl)-3-(2-methoxyphenyl)-7H-[1,2,4]triazolo[3,4-b][1,3,4]thiadiazine] | –
91 | 107 | 41 | 62 | 64 | 41 | 62 | 15 | 35 | 16 | 17 | COc1ccccc1-c1nnc2n1N=C(c1ccc(N3CCCC3)cc1)CS2 [Example 24, 3-(2-Methoxyphenyl)-6-(4-(pyrrolidin-1-yl)phenyl)-7H-[1,2,4]triazolo[3,4-b][1,3,4]thiadiazine] | –
612 | 511 | 694 | 1260 | 161 | 1980 | 275 | 285 | 321 | 105 | 317 | COc1ccccc1-c1nnc2n1N=C(c1ccc(N3CCOCC3)cc1)CS2 [Example 25, 3-(2-Methoxyphenyl)-6-(4-morpholinophenyl)-7H-[1,2,4]triazolo[3,4-b][1,3,4]thiadiazine] | –
297 | 154 | 114 | 280 | 16 | 20 | 73 | 17 | 106 | 20 | 20 | CCN(CC)c1ccc(C2=Nn3c(nnc3-c3cc(OC)cc(OC)c3)SC2)cc1 [Example 26, 6-(4-Diethylaminophenyl)-3-(3,5-dimethoxyphenyl)-7H-[1,2,4]triazolo[3,4-b][1,3,4]thiadiazine] | –
44 | 46 | 47 | 55 | 2 | 23 | 55 | 3 | 31 | 1 | 10 | CCN(CC)c1ccc(C2=Nn3c(nnc3-c3ccc(OC)cc3OC)SC2)cc1 [Example 27, 6-(4-Diethylaminophenyl)-3-(2,4-dimethoxyphenyl)-7H-[1,2,4]triazolo[3,4-b][1,3,4]thiadiazine] | –
– | – | – | – | – | – | – | – | – | – | – | COc1ccc(-c2nnc3n2N=C(c2ccc(N(C)C)cc2)CS3)cc1OC [Example 30, 6-(4-Dimethylminophenyl)-3-(3,4-dimethoxyphenyl)-7H-[1,2,4]triazolo[3,4-b][1,3,4]thiadiazine] | EC50 [1]: 360 nM; EC50 [2]: 64 nM; EC50 [3]: 119 nM; EC50 [4]: 221 nM; GI50 [5]: 102 nM; GI50 [6]: 126 nM; EC50 [7]: 57 nM; GI50 [8]: 157 nM; EC50 [9]: 55 nM; GI50 [10]: 100 nM; GI50 [11]: 50 nM
2390 | 534 | 619 | 5550 | 1470 | 4250 | 520 | 6330 | 544 | 503 | 581 | COc1ccc(-c2nnc3n2N=C(c2ccc(N=[N+]=[N-])cc2)CS3)cc1OC [Example 31, 6-(4-Azidophenyl)-3-(3,4-dimethoxyphenyl)-7H-[1,2,4]triazolo[3,4-b][1,3,4]thiadiazine] | –
1080 | 268 | 243 | 314 | 79 | 361 | 125 | 103 | 104 | 17 | 41 | CCOc1ccc(C2=Nn3c(nnc3-c3ccccc3Br)SC2)cc1 [Example A3] | –
1710 | 247 | 126 | 424 | 112 | 852 | 152 | 130 | 132 | 100 | 63 | COc1ccc(C2=Nn3c(nnc3-c3cccc(F)c3)SC2)cc1 [Example C3] | –
332 | 115 | 61 | 143 | 33 | 100 | 76 | 85 | 54 | 49 | 44 | COc1ccc(C2=Nn3c(nnc3-c3ccccc3Br)SC2)cc1 [Example D3] | –
244 | 125 | 85 | 157 | 47 | 200 | 77 | 66 | 48 | 21 | 33 | COc1ccc(C2=Nn3c(nnc3-c3ccc(Br)cc3)SC2)cc1 [Example E3] | –
905 | 523 | 329 | 612 | 400 | 376 | 379 | 176 | 629 | 119 | 96 | COc1ccc(C2=Nn3c(nnc3-c3cccc(Br)c3)SC2)cc1 [Example I2, 3-(3-Bromophenyl)-6-(4-methoxyphenyl)-7H-[1,2,4]triazolo[3,4-b][1,3,4]thiadiazine] | –
553 | 85 | 55 | 122 | 68 | 142 | 60 | 247 | 76 | 20 | 34 | COc1ccc(C2=Nn3c(nnc3-c3ccccc3F)SC2)cc1 [Example L2, 3-(2-Fluorophenyl)-6-(4-methoxyphenyl)-7H-[1,2,4]triazolo[3,4-b][1,3,4]thiadiazine] | –
191 | 53 | 31 | 34 | 34 | 171 | 29 | 164 | 41 | 13 | 38 | COc1ccc(C2=Nn3c(nnc3-c3ccccc3C)SC2)cc1 [Example N2, 3-(2-Methylphenyl)-6-(4-methoxyphenyl)-7H-[1,2,4]triazolo[3,4-b][1,3,4]thiadiazine] | –
